Reference: PubChem BioAssay AID330 (DTP/NCI, 2004)
Where “and” joins values, the source holds several entries; their conditions need not be identical. Equal entries are not always repeated. Toxic doses and inconclusive results are not listed.

Tested on: P388 leukemia ip, CD2F1 mice, survival T/C
Test: NCI In Vivo Anticancer Drug Screen. Data for tumor model P388 Leukemia (intraperitoneal) in CD2F1 (CDF1) mice
Details: endpoint: median survival time, higher = longer survival
Procedure, shortened: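 Mice carrying the transplanted tumor received test compound or vehicle. Survival was recorded in each group, and the value is the treated-group measurement divided by that of the vehicle-treated control group.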

[1] = dose: 50.0 mg/kg/injection, schedule: Q01DX009 (ip), vehicle: saline
[2] = dose: 100.0 mg/kg/injection, schedule: Q01DX009 (ip), vehicle: saline
[3] = dose: 200.0 mg/kg/injection, schedule: Q01DX009 (ip), vehicle: saline
[4] = dose: 100.0 mg/kg/injection, schedule: Q01DX009 (ip), vehicle: saline with Tween-80
[5] = dose: 200.0 mg/kg/injection, schedule: Q01DX009 (ip), vehicle: saline with Tween-80
[6] = dose: 50.0 mg/kg/injection, schedule: Q01DX009 (ip), vehicle: saline with Tween-80
[7] = dose: 60.0 mg/kg/injection, schedule: Q01DX005 (ip), vehicle: saline with Tween-80
[8] = dose: 120.0 mg/kg/injection, schedule: Q01DX005 (ip), vehicle: saline with Tween-80
[9] = dose: 240.0 mg/kg/injection, schedule: Q01DX005 (ip), vehicle: saline with Tween-80
[10] = dose: 100.0 mg/kg/injection, schedule: Q01DX001 (ip), vehicle: Klucel (hydroxypropylcellulose) (HPC)
[11] = dose: 15.0 mg/kg/injection, schedule: Q01DX005 (ip), vehicle: Klucel (hydroxypropylcellulose) (HPC)
[12] = dose: 30.0 mg/kg/injection, schedule: Q01DX005 (ip), vehicle: Klucel (hydroxypropylcellulose) (HPC)
[13] = dose: 60.0 mg/kg/injection, schedule: Q01DX005 (ip), vehicle: Klucel (hydroxypropylcellulose) (HPC)
[14] = dose: 200.0 mg/kg/injection, schedule: Q01DX001 (ip), vehicle: Klucel (hydroxypropylcellulose) (HPC)
[15] = dose: 50.0 mg/kg/injection, schedule: Q01DX005 (ip), vehicle: Klucel (hydroxypropylcellulose) (HPC)
[16] = dose: 100.0 mg/kg/injection, schedule: Q01DX005 (ip), vehicle: Klucel (hydroxypropylcellulose) (HPC)
[17] = dose: 200.0 mg/kg/injection, schedule: Q01DX005 (ip), vehicle: Klucel (hydroxypropylcellulose) (HPC)
[18] = dose: 50.0 mg/kg/injection, schedule: Q01DX005 (ip), vehicle: saline with Tween-80
[19] = dose: 100.0 mg/kg/injection, schedule: Q01DX005 (ip), vehicle: saline with Tween-80
[20] = dose: 200.0 mg/kg/injection, schedule: Q01DX005 (ip), vehicle: saline with Tween-80

## O=C(Nc1ccccc1)c1csc(-c2csc(CCNC(=O)C(F)(F)F)n2)n1
dose: 12.5 mg/kg/injection, schedule: Q01DX009 (ip), vehicle: distilled water + Tween-80
  T/C: 88 % of control
dose: 25.0 mg/kg/injection, schedule: Q01DX009 (ip), vehicle: distilled water + Tween-80
  T/C: 88 % of control
dose: 100.0 mg/kg/injection, schedule: Q01DX009 (ip), vehicle: distilled water + Tween-80
  T/C: 88 % of control
dose: 200.0 mg/kg/injection, schedule: Q01DX009 (ip), vehicle: distilled water + Tween-80
  T/C: 89 % of control

## CC(=O)Nc1nc(C)c(S(=O)(=O)Cl)s1
[1]
  T/C: 102 % of control
[2]
  T/C: 98 % of control
[3]
  T/C: 102 % of control
dose: 400.0 mg/kg/injection, schedule: Q01DX009 (ip), vehicle: saline
  T/C: 94 % of control

## CC1(C)C=C(Cc2ccccc2)C(=O)c2ccccc21
[4]
  T/C: 90 % of control
[5]
  T/C: 100 % of control
dose: 400.0 mg/kg/injection, schedule: Q01DX009 (ip), vehicle: saline with Tween-80
  T/C: 95 % of control

## Oc1ccc2ccccc2c1/C=N\Sc1ccc(Cl)cc1
[6]
  T/C: 90 % of control
[4]
  T/C: 91 % of control
[5]
  T/C: 96 % of control

## CC(CN1CCCCC1)NC(=O)c1scnc1-c1ccccc1 (stereo unspecified)
[7]
  T/C: 116 % of control
[8]
  T/C: 98 % of control

## C=CCC(C(C)=O)C(=O)OC (stereo unspecified)
dose: 50.0 mg/kg/injection, schedule: Q01DX005 (ip), vehicle: saline
  T/C: 90 % of control
dose: 100.0 mg/kg/injection, schedule: Q01DX005 (ip), vehicle: saline
  T/C: 104 % of control
dose: 200.0 mg/kg/injection, schedule: Q01DX005 (ip), vehicle: saline
  T/C: 100 % of control

## C[CH2][Ge]([CH2]C)[CH2]C.C[CH2][Ge]([CH2]C)[CH2]C.C[CH2][Ge]([CH2]C)[S][Ge]([CH2]C)[CH2]C
[7]
  T/C: 96 % of control
[8]
  T/C: 100 % of control
[9]
  T/C: 99 % of control

## Cc1[nH]c2cc(Br)ccc2c1/C=N/NC(N)=S
[10]
  T/C: 107 % of control

## CCOC(=O)c1c[nH]c2c(ccc3cccnc32)c1=O
[11]
  T/C: 99 % of control
[12]
  T/C: 99 % of control
[1]
  T/C: 99 % of control
[13]
  T/C: 99 % of control and 97 % of control
[2]
  T/C: 117 % of control
[3]
  T/C: 99 % of control

## Cc1cccc(/C=C/C(=O)C(CN(C)C)CN(C)C)c1
dose: 6.25 mg/kg/injection, schedule: Q01DX005 (ip), vehicle: Klucel (hydroxypropylcellulose) (HPC)
  T/C: 104 % of control
dose: 12.5 mg/kg/injection, schedule: Q01DX005 (ip), vehicle: Klucel (hydroxypropylcellulose) (HPC)
  T/C: 100 % of control

## C=C1C(=O)OC2CC3(C)OC3CCC3(C)OC3CC12 (stereo unspecified)
dose: 7.75 mg/kg/injection, schedule: Q01DX005 (ip), vehicle: Klucel (hydroxypropylcellulose) (HPC)
  T/C: 105 % of control
dose: 15.5 mg/kg/injection, schedule: Q01DX005 (ip), vehicle: Klucel (hydroxypropylcellulose) (HPC)
  T/C: 101 % of control
dose: 31.0 mg/kg/injection, schedule: Q01DX005 (ip), vehicle: Klucel (hydroxypropylcellulose) (HPC)
  T/C: 109 % of control
dose: 62.0 mg/kg/injection, schedule: Q01DX005 (ip), vehicle: Klucel (hydroxypropylcellulose) (HPC)
  T/C: 105 % of control

## O=P(Oc1ccccc1)(Oc1ccccc1)C(O)C(Cl)(Cl)Cl (stereo unspecified)
[6]
  T/C: 107 % of control
[4]
  T/C: 100 % of control and 117 % of control
[5]
  T/C: 103 % of control

## CCSC(CC(C)=O)c1ccccc1 (stereo unspecified)
[6]
  T/C: 108 % of control
[4]
  T/C: 116 % of control
[5]
  T/C: 105 % of control

## COc1cc2cc(c1Cl)N(C)C(=O)CC(OC(=O)C(C)NC(=O)C(C)C)C1(C)OC1C(C)C1CC(O)(NC(=O)O1)C(OC)/C=C/C=C(C)C2OC (stereo unspecified)
dose: 32.0 micrograms/kg/injection, schedule: Q01DX009 (ip), vehicle: distilled water + alcohol
  T/C: 159 % of control

## CC1CCC(c2ccccc2)(c2ccccc2)C1=O (stereo unspecified)
[10]
  T/C: 96 % of control
[14]
  T/C: 100 % of control
dose: 400.0 mg/kg/injection, schedule: Q01DX001 (ip), vehicle: Klucel (hydroxypropylcellulose) (HPC)
  T/C: 96 % of control

## c1ccc(CCNc2ncnc3nc[nH]c23)cc1
dose: 12.5 mg/kg/injection, schedule: Q01DX009 (ip), vehicle: other
  T/C: 102 % of control
dose: 25.0 mg/kg/injection, schedule: Q01DX009 (ip), vehicle: other
  T/C: 101 % of control
dose: 50.0 mg/kg/injection, schedule: Q01DX009 (ip), vehicle: other
  T/C: 100 % of control
dose: 100.0 mg/kg/injection, schedule: Q01DX009 (ip), vehicle: other
  T/C: 101 % of control
dose: 200.0 mg/kg/injection, schedule: Q01DX009 (ip), vehicle: other
  T/C: 102 % of control

## COC(=S)SSC(=S)NCC(C)NC(=S)SSC(=S)OC (stereo unspecified)
[15]
  T/C: 103 % of control
[16]
  T/C: 103 % of control
[17]
  T/C: 105 % of control

## COC(=O)CCC1=CC(=O)C(OC)=CC1=O
dose: 6.25 mg/kg/injection, schedule: Q01DX009 (ip), vehicle: saline with Tween-80
  T/C: 110 % of control
dose: 12.5 mg/kg/injection, schedule: Q01DX009 (ip), vehicle: saline with Tween-80
  T/C: 97 % of control
dose: 25.0 mg/kg/injection, schedule: Q01DX009 (ip), vehicle: saline with Tween-80
  T/C: 99 % of control

## Fc1cccc(C(Nc2nncs2)Nc2nncs2)c1F
[18]
  T/C: 99 % of control
[19]
  T/C: 93 % of control
[20]
  T/C: 93 % of control

## O=C1/C(=C/c2ccncc2)CCCc2ccccc21
[13]
  T/C: 102 % of control
dose: 120.0 mg/kg/injection, schedule: Q01DX005 (ip), vehicle: Klucel (hydroxypropylcellulose) (HPC)
  T/C: 104 % of control

## COc1cc(OC)c(OC)cc1/C=C/C1=C(C)C(=O)CC(c2cc(OC)c(OC)cc2OC)C1C (stereo unspecified)
[10]
  T/C: 86 % of control
[14]
  T/C: 86 % of control

## CC(=O)C[n+]1ccccc1Sc1ccccc1C
[18]
  T/C: 103 % of control

## C[C@H]1[C@H](O)[C@H]2[C@@H](CCC3=CC(=O)CC[C@@]32C)[C@@H]2CC[C@H](O)[C@@]12C
dose: 100.0 mg/kg/injection, schedule: Q04DX003 (ip), vehicle: saline with Tween-80
  T/C: 104 % of control
dose: 200.0 mg/kg/injection, schedule: Q04DX003 (ip), vehicle: saline with Tween-80
  T/C: 100 % of control
dose: 400.0 mg/kg/injection, schedule: Q04DX003 (ip), vehicle: saline with Tween-80
  T/C: 100 % of control

## O=S(=O)(Nc1nccs1)c1ccc(N=Cc2c3ccccc3nc3cc(Cl)ccc23)cc1
[18]
  T/C: 94 % of control
[19]
  T/C: 93 % of control
[20]
  T/C: 96 % of control

## Fc1ccc(Nc2c3ccccc3nc3c2cnn3-c2ccccc2)cc1
[15]
  T/C: 91 % of control
[13]
  T/C: 86 % of control
[16]
  T/C: 87 % of control
[17]
  T/C: 87 % of control
dose: 240.0 mg/kg/injection, schedule: Q01DX005 (ip), vehicle: Klucel (hydroxypropylcellulose) (HPC)
  T/C: 90 % of control

## O=C1Nc2ccccc2C(=O)C1=Ic1ccccc1
[11]
  T/C: 101 % of control
[12]
  T/C: 104 % of control
[15]
  T/C: 94 % of control
[13]
  T/C: 104 % of control and 88 % of control
[16]
  T/C: 91 % of control

## COc1cc(C(CC(C)=O)c2cc3c(cc2OC(C)=O)OCO3)cc(OC)c1OC (stereo unspecified)
dose: 30.0 mg/kg/injection, schedule: Q01DX005 (ip), vehicle: saline with Tween-80
  T/C: 95 % of control
[7]
  T/C: 100 % of control and 93 % of control
[8]
  T/C: 120 % of control

## Cc1ccc2cccc(OC(=O)Nc3ccc(Cl)c(Cl)c3)c2n1
dose: 12.5 mg/kg/injection, schedule: Q01DX009 (ip), vehicle: saline
  T/C: 98 % of control
dose: 25.0 mg/kg/injection, schedule: Q01DX009 (ip), vehicle: saline
  T/C: 103 % of control
[6]
  T/C: 91 % of control
[1]
  T/C: 103 % of control
[4]
  T/C: 105 % of control

## COc1ccc(/C=C2/N=C(c3ccccc3)OC2=O)cc1
[7]
  T/C: 93 % of control
[8]
  T/C: 93 % of control
[9]
  T/C: 87 % of control
